Results taken from patent US11542262B2, “Phosphatidylinositol 3-kinase inhibitors” (NANJING ZHENGXIANG PHARMACEUTICALS CO., LTD., priority 2019, dated 2023).
Values after ≈ are worked out from the molar mass of the structure shown.

Experiments:
PI3Kγ = PI3Kγ (Homo sapiens, UniProt P48736); experiment: ADP-Glo luminescent assay, enzymatic activity of PI3K gamma; assay type: biochemical; conditions: ATP 25 μM; read-out: PI3K gamma (nM) inhibitory activity (IC50)
Method: The compounds would be tested from 1 or 10 μM, 3-fold dilution for 10 doses, in duplicate.
(§1) Compound preparation: Dilute a compound to 100× of the final desired highest inhibitor concentration in reaction by 100% DMSO. Transfer 100 μl of this compound dilution to a well in a 96-well plate and serially dilute it with DMSO for a total of 10 concentrations.
Kinase reaction: Prepare a solution of PI3K in 1× kinase buffer at 2-fold the final concentration of each reagent in the assay. Control wells contain 1× kinase buffer without enzyme. Prepare substrate solution of PIP2 substrate and ATP in 1× kinase reaction buffer at 2-fold of the final concentration. Add concentration substrate solution to each well to the final concentration. Cover the assay plate, shake to mix, and incubate at room temperature for 1 hour. Add 5 μl of ADP-Glo reagent to each well to stop the reaction. […] Add 10 ul Kinase Detection Reagent to each well, shake 1 min, equilibrate for 30 min before reading on a luminescence plate reader.
(§2) Data Analysis: Convert RLU values to percent inhibition values as Percent inhibition=(max−sample RLU)/(max−min)*100. “min”—no enzyme control; “max”—DMSO control. Fit the data in XLFit excel add-in version 5.4.0.8 to obtain IC50 values. Y=Bottom+(Top−Bottom)/(1+(IC50/X)^HillSlope).

PI3Kδ = PI3Kδ (Homo sapiens, UniProt O00329); experiment: ADP-Glo luminescent assay, enzymatic activity of PI3K delta; assay type: biochemical; conditions: ATP 25 μM; read-out: PI3K delta (nM) inhibitory activity (IC50)
Method: Enzymatic activity of PI3K isoforms: Enzymatic activity of the class I PI3K isoforms in the presence of the compounds of Table 1 was measured using ADP-Glo luminescent assay against PI3Kα, PI3Kβ, PI3Kδ and PI3Kγ with ATP concentration at 25 μM. […] The compounds would be tested from 1 or 10 μM, 3-fold dilution for 10 doses, in duplicate.
as §1
Kinase reaction: Prepare a solution of PI3K in 1× kinase buffer at 2-fold the final concentration of each reagent in the assay. Control wells contain 1× kinase buffer without enzyme. Prepare substrate solution of PIP2 substrate and ATP in 1× kinase reaction buffer at 2-fold of the final concentration. Add concentration substrate solution to each well to the final concentration. Cover the assay plate, shake to mix, and incubate at room temperature for 1 hour. Add 5 μl of ADP-Glo reagent to each well to stop the reaction. Mix briefly with a quick spin, shake slowly on the shaker for 120 min. Add 10 ul Kinase Detection Reagent to each well, shake 1 min, equilibrate for 30 min before reading on a luminescence plate reader.
as §2

PI3K gamma = target: T1, PI3K gamma (Mus musculus, UniProt Q9JHG7); experiment: Raw264.7 cell assay: phosphorylation of AKT in C5a stimulated RAW264.7 cells (AlphaLISA); assay type: cell-based; conditions: pAKT, read-out: PI3K gamma Raw264.7 cell (nM) cellular activity (IC50)
T1 construct: endogenous in cells; host or cells: RAW264.7
Method: This study aims to determine the inhibitory effect of compounds on PI3K gamma and PI3K delta in corresponding cell based assays. PI3K gamma activity was reflected by phosphorylation of AKT in C5a stimulated RAW264.7 cells, and PI3K delta activity was reflected by phosphorylation of AKT in anti-IgM stimulated Raji cells. Phosphorylation of AKT in cells was determined using AlphaLISA technology from PerkinElmer.
Raw264.7 cell assay: Prepare Passage 15 Raw264.7 cell and add 6 μL of 30K cells per well in 384-well plate by multidrop. Centrifuge at 500 RPM for 30 s and incubate for 2 hours at 37° C., 5% CO2. Add 30 nL compound by echo and incubate for 30 min at 37° C., 5% CO2. […] Add 2 μL of 5× lysis buffer by multidrop, incubate for 10 min on a plate shaker. Add 5 μL acceptor mix provided in the kit, centrifuge at 1000 RPM for 1 min. Add 5 μL donor mix provided in the kit, centrifuge at 1000 RPM for 1 min and incubate in dark for 2 hours at 25° C. Read AlphaLISA signal on Envision.
Y=Bottom+(Top−Bottom)/(1+10^((Log IC50−X)*Hill Slope)) X: Log of cpd concentration Y: Inhibition

[1] = Kinetic solubility test in PBS pH7.4; assay type: physicochemical; conditions: aqueous buffer, kinetic from dmso stock; PBS pH 7.4, 25° C., 2 hours
Method: 15 μL of stock solution (10 mM) was placed in order into their proper 96-well rack. 485 μL of PBS pH7.4 was added into each vial of the cap-less Solubility Sample plate. The assay was performed in singlet. Add one stir stick to each vial and seal using a molded PTFE/Silicone plug. […] After completion of the 2 hours, the samples from the Solubility Sample plate were transferred into the filter plate. all the samples were filtered using the Vacuum Manifold. Aliquot of 5 μL was taken from the filtrate followed by addition of 495 μL of a mixture of H2O and acetonitrile containing internal standard (1:1). A certain proportion of ultrapure water was used to dilute the diluent according to the peak shape. The dilution factor was changed according to the solubility values and the LC-MS signal response.
Preparation of 3 μM standards (STD): From the 10 mM DMSO STD plate, 6 μL was transferred into the remaining empty plate, and then 194 μL of DMSO was added to that plate to have a STD concentration of 300 μM. From the 300 μM DMSO STD plate, 5 μL was transferred into the remaining empty plate, and then 495 μL of a mixture of H2O and acetonitrile containing internal standard (1:1) was added to that plate to have a final STD concentration of 3 μM. A certain proportion of ultrapure water was used to dilute the diluent according to the peak shape. The concentrations of the standard samples were changed according to the LC-MS signal response.
Procedure for sample analysis: The plate was placed into the well plate autosampler. The samples were evaluated by LC-MS/MS analysis.
Data analysis: All calculations were carried out using Microsoft Excel.
The filtrate was analyzed and quantified against a standard of known concentration using LC coupled with mass spectral peak identification and quantitation. Solubility values of the test compound and control compound were calculated as follows:
[formula] • Any value of the compounds that was not within the specified limits was rejected and the experiment was repeated.

Sequence of PI3Kγ (P48736 whole entry, species assumed): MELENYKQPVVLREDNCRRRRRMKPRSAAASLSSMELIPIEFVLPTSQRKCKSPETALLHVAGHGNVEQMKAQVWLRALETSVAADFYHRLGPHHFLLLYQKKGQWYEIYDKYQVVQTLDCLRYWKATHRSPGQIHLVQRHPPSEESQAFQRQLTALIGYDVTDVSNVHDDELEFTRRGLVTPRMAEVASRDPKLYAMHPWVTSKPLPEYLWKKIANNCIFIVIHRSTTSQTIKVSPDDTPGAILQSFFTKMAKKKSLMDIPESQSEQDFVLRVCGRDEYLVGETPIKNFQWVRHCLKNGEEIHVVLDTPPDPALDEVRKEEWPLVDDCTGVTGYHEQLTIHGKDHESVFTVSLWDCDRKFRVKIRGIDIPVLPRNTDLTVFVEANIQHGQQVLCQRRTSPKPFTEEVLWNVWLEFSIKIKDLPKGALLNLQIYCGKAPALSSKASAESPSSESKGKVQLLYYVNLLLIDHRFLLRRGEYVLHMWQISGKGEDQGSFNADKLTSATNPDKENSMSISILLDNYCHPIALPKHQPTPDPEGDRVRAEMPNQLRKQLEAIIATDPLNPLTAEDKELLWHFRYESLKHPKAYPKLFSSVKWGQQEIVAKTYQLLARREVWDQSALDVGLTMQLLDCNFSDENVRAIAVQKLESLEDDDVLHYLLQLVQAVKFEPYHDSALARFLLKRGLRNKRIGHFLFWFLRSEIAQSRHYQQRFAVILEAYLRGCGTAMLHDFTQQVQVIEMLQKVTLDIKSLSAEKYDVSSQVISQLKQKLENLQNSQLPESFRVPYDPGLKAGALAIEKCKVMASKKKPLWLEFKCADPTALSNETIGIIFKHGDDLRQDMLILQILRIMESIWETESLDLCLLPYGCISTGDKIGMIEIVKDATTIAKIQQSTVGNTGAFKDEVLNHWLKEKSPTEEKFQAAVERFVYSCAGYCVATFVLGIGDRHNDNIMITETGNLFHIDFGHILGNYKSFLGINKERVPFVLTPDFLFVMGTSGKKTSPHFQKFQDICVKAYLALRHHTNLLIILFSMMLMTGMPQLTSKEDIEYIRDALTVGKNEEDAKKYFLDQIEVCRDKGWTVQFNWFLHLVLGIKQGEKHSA
T1 sequence (Q9JHG7 whole entry): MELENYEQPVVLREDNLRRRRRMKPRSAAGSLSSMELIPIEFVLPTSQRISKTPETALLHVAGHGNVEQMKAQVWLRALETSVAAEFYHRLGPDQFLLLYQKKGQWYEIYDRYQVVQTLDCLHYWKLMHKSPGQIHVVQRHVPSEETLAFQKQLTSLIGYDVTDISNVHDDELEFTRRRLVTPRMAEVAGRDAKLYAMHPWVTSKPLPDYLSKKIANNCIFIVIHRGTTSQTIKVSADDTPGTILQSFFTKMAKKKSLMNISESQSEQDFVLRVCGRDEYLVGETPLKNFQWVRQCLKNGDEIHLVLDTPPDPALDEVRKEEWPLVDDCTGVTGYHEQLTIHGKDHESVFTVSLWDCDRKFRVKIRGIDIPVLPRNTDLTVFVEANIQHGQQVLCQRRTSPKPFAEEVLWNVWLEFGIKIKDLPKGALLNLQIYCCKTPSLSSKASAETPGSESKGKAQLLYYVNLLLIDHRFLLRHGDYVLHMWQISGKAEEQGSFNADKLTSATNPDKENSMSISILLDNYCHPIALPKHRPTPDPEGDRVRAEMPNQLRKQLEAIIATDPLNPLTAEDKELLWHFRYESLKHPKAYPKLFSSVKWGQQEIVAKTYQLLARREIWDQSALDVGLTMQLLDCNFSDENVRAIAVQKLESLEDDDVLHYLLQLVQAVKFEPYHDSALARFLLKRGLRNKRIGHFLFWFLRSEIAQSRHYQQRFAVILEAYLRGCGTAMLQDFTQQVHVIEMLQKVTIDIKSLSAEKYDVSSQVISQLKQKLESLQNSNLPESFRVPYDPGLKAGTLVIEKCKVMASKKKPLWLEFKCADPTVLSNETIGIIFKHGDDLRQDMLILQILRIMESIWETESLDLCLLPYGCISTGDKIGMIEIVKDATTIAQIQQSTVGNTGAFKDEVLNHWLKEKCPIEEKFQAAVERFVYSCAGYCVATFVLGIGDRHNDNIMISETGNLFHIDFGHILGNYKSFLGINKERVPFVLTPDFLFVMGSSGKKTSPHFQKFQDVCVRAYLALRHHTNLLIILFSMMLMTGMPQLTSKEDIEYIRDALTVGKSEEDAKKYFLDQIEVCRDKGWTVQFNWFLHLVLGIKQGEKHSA
T1 sequence (Q5SW28 whole entry partner): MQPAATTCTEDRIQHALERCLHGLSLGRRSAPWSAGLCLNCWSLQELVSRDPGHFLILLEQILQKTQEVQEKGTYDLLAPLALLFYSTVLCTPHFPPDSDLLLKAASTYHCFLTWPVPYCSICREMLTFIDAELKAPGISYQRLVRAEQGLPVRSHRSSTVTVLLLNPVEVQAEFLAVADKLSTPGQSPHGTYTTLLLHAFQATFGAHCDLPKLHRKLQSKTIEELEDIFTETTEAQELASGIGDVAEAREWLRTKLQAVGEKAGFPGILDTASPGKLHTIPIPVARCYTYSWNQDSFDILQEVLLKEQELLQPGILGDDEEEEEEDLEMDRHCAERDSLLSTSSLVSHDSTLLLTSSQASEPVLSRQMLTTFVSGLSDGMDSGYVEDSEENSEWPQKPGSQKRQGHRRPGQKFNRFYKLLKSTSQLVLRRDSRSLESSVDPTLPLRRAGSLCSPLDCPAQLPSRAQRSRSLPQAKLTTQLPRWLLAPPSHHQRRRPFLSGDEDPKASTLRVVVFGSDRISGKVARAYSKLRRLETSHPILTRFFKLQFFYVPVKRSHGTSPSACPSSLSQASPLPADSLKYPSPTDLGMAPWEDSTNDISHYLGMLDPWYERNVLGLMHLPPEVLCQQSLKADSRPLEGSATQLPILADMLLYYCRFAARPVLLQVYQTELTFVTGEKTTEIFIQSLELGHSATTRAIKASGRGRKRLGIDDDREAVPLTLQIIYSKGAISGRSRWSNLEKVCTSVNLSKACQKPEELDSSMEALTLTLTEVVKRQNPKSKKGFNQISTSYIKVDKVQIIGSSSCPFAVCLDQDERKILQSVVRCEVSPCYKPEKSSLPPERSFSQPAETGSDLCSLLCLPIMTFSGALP
Sequence of PI3Kδ (O00329 whole entry, species assumed, canonical isoform): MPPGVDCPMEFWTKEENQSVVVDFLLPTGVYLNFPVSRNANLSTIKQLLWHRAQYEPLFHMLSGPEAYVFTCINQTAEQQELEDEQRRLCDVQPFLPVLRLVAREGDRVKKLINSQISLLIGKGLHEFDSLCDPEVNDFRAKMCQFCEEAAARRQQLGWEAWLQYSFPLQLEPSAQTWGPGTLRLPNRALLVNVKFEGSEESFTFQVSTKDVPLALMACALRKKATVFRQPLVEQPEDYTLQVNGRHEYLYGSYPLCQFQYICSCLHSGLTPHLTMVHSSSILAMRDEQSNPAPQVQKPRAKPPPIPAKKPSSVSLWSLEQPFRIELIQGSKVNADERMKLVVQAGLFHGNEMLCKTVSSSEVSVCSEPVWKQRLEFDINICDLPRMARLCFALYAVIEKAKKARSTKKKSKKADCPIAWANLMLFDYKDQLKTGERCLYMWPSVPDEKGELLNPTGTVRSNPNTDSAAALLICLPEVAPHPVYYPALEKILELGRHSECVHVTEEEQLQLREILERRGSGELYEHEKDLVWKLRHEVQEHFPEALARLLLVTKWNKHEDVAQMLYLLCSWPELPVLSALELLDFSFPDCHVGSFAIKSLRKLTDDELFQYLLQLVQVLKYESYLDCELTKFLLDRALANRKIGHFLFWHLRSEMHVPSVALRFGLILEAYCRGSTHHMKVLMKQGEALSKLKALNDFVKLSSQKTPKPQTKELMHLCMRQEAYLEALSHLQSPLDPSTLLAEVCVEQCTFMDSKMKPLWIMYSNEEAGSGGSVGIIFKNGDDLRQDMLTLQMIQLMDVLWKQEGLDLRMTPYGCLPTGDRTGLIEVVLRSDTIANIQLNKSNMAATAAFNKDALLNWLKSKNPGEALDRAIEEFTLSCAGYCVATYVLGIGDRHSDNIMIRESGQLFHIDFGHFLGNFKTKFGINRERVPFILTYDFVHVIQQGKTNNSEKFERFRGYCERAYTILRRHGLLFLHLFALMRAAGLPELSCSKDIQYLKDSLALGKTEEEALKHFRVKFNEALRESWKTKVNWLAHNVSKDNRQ
Sequence of PI3Kδ (P27986 whole entry partner, species assumed, canonical isoform): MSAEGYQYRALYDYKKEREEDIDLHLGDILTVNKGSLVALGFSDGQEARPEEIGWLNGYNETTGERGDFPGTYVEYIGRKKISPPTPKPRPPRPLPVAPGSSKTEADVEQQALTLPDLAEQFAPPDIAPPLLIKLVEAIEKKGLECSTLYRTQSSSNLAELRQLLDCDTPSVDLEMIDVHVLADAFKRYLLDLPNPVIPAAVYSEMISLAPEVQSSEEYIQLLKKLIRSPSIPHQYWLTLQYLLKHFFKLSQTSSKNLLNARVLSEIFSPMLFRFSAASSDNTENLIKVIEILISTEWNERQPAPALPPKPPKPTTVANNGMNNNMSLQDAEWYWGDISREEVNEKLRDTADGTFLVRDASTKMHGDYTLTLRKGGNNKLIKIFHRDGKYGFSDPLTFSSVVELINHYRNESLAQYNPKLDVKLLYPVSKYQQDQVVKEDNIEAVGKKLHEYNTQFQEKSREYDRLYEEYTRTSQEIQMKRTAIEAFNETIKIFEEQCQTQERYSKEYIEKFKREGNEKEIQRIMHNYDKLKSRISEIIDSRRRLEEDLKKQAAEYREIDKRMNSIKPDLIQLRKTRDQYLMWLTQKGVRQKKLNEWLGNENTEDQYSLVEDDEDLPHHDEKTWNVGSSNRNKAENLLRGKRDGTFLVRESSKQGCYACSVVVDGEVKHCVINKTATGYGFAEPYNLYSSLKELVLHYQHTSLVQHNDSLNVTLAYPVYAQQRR

IC50 (PI3Kγ) [nM] | IC50 (PI3Kδ) [nM] | IC50 (PI3K gamma) [nM] | solubility at 2 h [1] [µM] | Compound
1 |  | 20 |  | CC(=O)Nc1nc(C)c(-c2cc3c(c(OCCO)n2)C(=O)N([C@@H](C)C2CC2)C3)s1 [Compound 50, (S)-N-(5-(2-(1-cyclopropylethyl)-4-(2-hydroxyethoxy)-3-oxo-2,3-dihydro-1H-pyrrolo[3,4-c]pyridin-6-yl)-4-methylthiazol-2-yl)acetamide]
1.1 |  | 12 |  | CC(=O)Nc1nc(C)c(-c2cc3c(c(OC4COC4)n2)C(=O)N([C@@H](C)C2CC2)C3)s1 [Compound 52, (S)-N-(5-(2-(1-cyclopropylethyl)-4-(oxetan-3-yloxy)-3-oxo-2,3-dihydro-1H-pyrrolo[3,4-c]pyridin-6-yl)-4-methylthiazol-2-yl)acetamide]
4.6 |  | 17 |  | CC(=O)Nc1nc(C)c(-c2cc3c(c(CN4CCOCC4)n2)C(=O)N([C@@H](C)C2CC2)C3)s1 [Compound 54, (S)-N-(5-(2-(1-cyclopropylethyl)-4-(morpholinomethyl)-3-oxo-2,3-dihydro-1H-pyrrolo[3,4-c]pyridin-6-yl)-4-methylthiazol-2-yl)acetamide]
1.7 |  | 18 |  | CC(=O)Nc1nc(C)c(-c2cc3c(c(C(C)N4CCOCC4)n2)C(=O)N([C@@H](C)C2CC2)C3)s1 (stereo partly drawn) [Compound 55, N-(5-(2-((S)-1-cyclopropylethyl)-4-(1-morpholinoethyl)-3-oxo-2,3-dihydro-1H-pyrrolo[3,4-c]pyridin-6-yl)-4-methylthiazol-2-yl)acetamide]
 |  |  | 6.4 (≈ 3.38 µg/mL) | C[C@H](NC(=O)c1c(N)nn2cccnc12)c1cc2cccc(C#Cc3cnn(C)c3)c2c(=O)n1-c1ccccc1 [IPI-549, reference compound]

Second part, the molecule before the results:

Compound | IC50 (PI3Kγ) [nM] | IC50 (PI3Kδ) [nM] | IC50 (PI3K gamma) [nM] | solubility at 2 h [1] [µM]
CCC(=O)Nc1nc(C)c(-c2cc3c(c(P(C)(C)=O)c2)C(=O)N([C@@H](C)C2CC2)C3)s1 [Compound 2, (S)-N-(5-(2-(1-cyclopropylethyl)-7-(dimethylphosphoryl)-1-oxoisoindolin-5-yl)-4-methylthiazol-2-yl)propionamide] | 3.7 | > 1000 |  | 
CC(=O)Nc1nc(C)c(-c2cnc3c(c2)CN([C@@H](C)C2CC2)C3=O)s1 [Compound 8, (S)-N-(5-(6-(1-cyclopropylethyl)-7-oxo-6,7-dihydro-5H-pyrrolo[3,4-b]pyridin-3-yl)-4-methylthiazol-2-yl)acetamide] | 34 | 361 | 115 | 
CC(=O)Nc1nc(C)c(-c2ccc3c(c2)CN([C@@H](C)C2CC2)C3=O)s1 [Compound 10, (S)-N-(5-(2-(1-cyclopropylethyl)-1-oxoisoindolin-5-yl)-4-methylthiazol-2-yl)acetamide] | 2.5 | 359 | 290 | 
CC(=O)Nc1nc(C)c(-c2cc3c(c(S(C)(=O)=O)n2)C(=O)N([C@@H](C)C2CC2)C3)s1 [Compound 19, (S)-N-(5-(2-(1-cyclopropylethyl)-4-(methylsulfonyl)-3-oxo-2,3-dihydro-1H-pyrrolo[3,4-c]pyridin-6-yl)-4-methylthiazol-2-yl)acetamide] | 1.6 | > 1000 | 28 | 
CC(=O)Nc1nc(C)c(-c2cc3c(c(NC(=O)C4CC4)n2)C(=O)N([C@@H](C)C2CC2)C3)s1 [Compound 26, (S)-N-(6-(2-acetamido-4-methylthiazol-5-yl)-2-(1-cyclopropylethyl)-3-oxo-2,3-dihydro-M-pyrrolo[3,4-c]pyridin-4-yl)cyclopropanecarboxamide] | 1.4 | > 1000 |  | 
CC(=O)Nc1nc(C)c(-c2cc3c(c(N4CCN(C(C)=O)CC4)n2)C(=O)N([C@@H](C)C2CC2)C3)s1 [Compound 40, (S)-N-(5-(4-(4-acetylpiperazin-1-yl)-2-(1-cyclopropylethyl)-3-oxo-2,3-dihydro-1H-pyrrolo[3,4-c]pyridin-6-yl)-4-methylthiazol-2-yl)acetamide] | 2 |  | 6.3 | 25 (≈ 12.1 µg/mL)
CC(=O)Nc1ncc(-c2cc3c(c(N4CCOCC4)n2)C(=O)N([C@@H](C)C2CC2)C3)s1 [Compound 41, (S)-N-(5-(2-(1-cyclopropylethyl)-4-morpholino-3-oxo-2,3-dihydro-1H-pyrrolo[3,4-c]pyridin-6-yl)thiazol-2-yl)acetamide] | 2.3 |  |  | 3.5 (≈ 1.5 µg/mL)
COCCOc1nc(-c2sc(NC(C)=O)nc2C)cc2c1C(=O)N([C@@H](C)C1CC1)C2 [Compound 42, (S)-N-(5-(2-(1-cyclopropylethyl)-4-(2-methoxyethoxy)-3-oxo-2,3-dihydro-1H-pyrrolo[3,4-c]pyridin-6-yl)-4-methylthiazol-2-yl)acetamide] | 1.8 |  |  | 2.6 (≈ 1.12 µg/mL)
CC(=O)Nc1nc(C)c(-c2cc3c(c(N4CCC(O)CC4)n2)C(=O)N([C@@H](C)C2CC2)C3)s1 [Compound 46, (S)-N-(5-(2-(1-cyclopropylethyl)-4-(4-hydroxypiperidin-1-yl)-3-oxo-2,3-dihydro-1H-pyrrolo[3,4-c]pyridin-6-yl)-4-methylthiazol-2-yl)acetamide] | 0.7 |  | 3.8 | 6.1 (≈ 2.78 µg/mL)
CC(=O)Nc1nc(C)c(-c2cc3c(c(N4CC(O)C4)n2)C(=O)N([C@@H](C)C2CC2)C3)s1 [Compound 48, (S)-N-(5-(2-(1-cyclopropylethyl)-4-(3-hydroxyazetidin-1-yl)-3-oxo-2,3-dihydro-1H-pyrrolo[3,4-c]pyridin-6-yl)-4-methylthiazol-2-yl)acetamide] | 0.84 |  | 14 | 
CC(=O)Nc1nc(C)c(-c2cc3c(c(N4CC(S(C)(=O)=O)C4)n2)C(=O)N([C@@H](C)C2CC2)C3)s1 [Compound 49, (S)-N-(5-(2-(1-cyclopropylethyl)-4-(3-(methylsulfonyl)azetidin-1-yl)-3-oxo-2,3-dihydro-1H-pyrrolo[3,4-c]pyridin-6-yl)-4-methylthiazol-2-yl)acetamide] | 1 |  | 38 | 
